This assay has as its system synthesis of LTB4 in human whole blood. The experiment in a line: human whole blood (HWB) assay, LTB4 production inhibition after calcimycin. The format is cell-based. As to conditions: heparinized human whole blood, calcimycin 20 μM, 37° C., plasma LTB4. The protocol:
The compounds of the invention are additionally tested in a human whole blood (HWB) assay to determine their ability to inhibit the synthesis of LTB4 in a cellular system. Compounds are combined with heparinized human whole blood and incubated for 15 minutes at 37° C. Calcimycin (20 μM final, prepared in phosphate-buffered saline, pH 7.4) is then added and the mixture is incubated for another 30 minutes at 37° C. The samples are centrifuged for 5 min at low speed (1500×g) and the plasma layer is removed. Plasma LTB4 concentrations are then measured using an antibody-based homogenous time-resolved fluorescence method (CisBio, Bedford, Mass.). In general, the preferred potency range (IC50) of compounds in the HWB assay is between 10 nM to 10 μM, the more preferred potency range is 10 nM to 1 μM, and the most preferred potency range is 10 nM to 100 nM.
As to `c1ccc2c(c1)OC[C@H](c1ccc(CN3CCC[C@H]4CCCCC43)cc1)O2` (stereo in doubt) [Example 85, (4aR,8aS)-1-{4-[(2S)-2,3-dihydro-1,4-benzodioxin-2-yl]benzyl}decahydroquinoline], the half-inhibitory concentration (IC50) worked out at 305 nM.
`c1cnc2c(c1)OC[C@H](c1ccc(CN3[C@H]4CC[C@@H]3CC4)cc1)O2` [Example 145, (3S)-3-{4-[(1s,4s)-7-azabicyclo[2.2.1]hept-7-ylmethyl]phenyl}-2,3-dihydro[1,4]dioxino[2,3-b]pyridine]: the IC50 was found to be 28.4 nM.
The result for `O[C@@H]1CCN(Cc2ccc(C3COc4ccccc4O3)cc2)C1` (mixture of isomers) [Example 9, (3S)-1-[4-(2,3-dihydro-1,4-benzodioxin-2-yl)benzyl]pyrrolidin-3-ol] reads 285 nM.
As for `CC(C)(O)C(=O)NC1CCN(Cc2ccc([C@H]3COc4ccccc4O3)cc2)CC1` [Example 220, N-(1-{4-[(2S)-2,3-dihydro-1,4-benzodioxin-2-yl]benzyl}piperidin-4-yl)-2-hydroxy-2-methylpropanamide], the half-maximal inhibitory concentration (IC50) was 91.1 nM.

One may read the IC50 as the concentration at which inhibition is half-maximal.

The values above are taken from patent US9133146B2, “Benzodioxane inhibitors of leukotriene production” (Boehringer Ingelheim International GmbH, priority 2011, dated 2015).
